Source: ChEMBL document CHEMBL5236551, “Andrographolide and its derivatives: Current achievements and future perspectives” (Eur J Med Chem, 2021)
Converted amounts (≈) assume the structure as drawn. Each block holds one molecule with its values, some of them ahead of it.

Key:
Pseudomonas aeruginosa [1] = test: Antibiofilm activity against Pseudomonas aeruginosa MTCC 7814 assessed as inhibition of biofilm formation at 0.1 mM in presence of azithromycin or gentamicin incubated for 48 hrs relative to control; type: functional; settings: MTCC 7814, 48 h
Rattus norvegicus [2] = test: Anti-inflammatory activity against egg albumin-induced paw edema in Sprague-Dawley rat assessed as inhibition of paw edema at 0.90 mmol/Kg, po preadministered once daily via gavage for 3 days followed by egg albumin addition measured at 120 min by plethysmometric analysis relative to control; type: functional; settings: 72 h, at 0.9 mmol/kg, time 3 day
Mus musculus = test: Anti-inflammatory activity against dimethylbenzene-induced auricular edema Kunming mouse model assessed as inhibition of ear edema at 1.35 mmol/Kg, po administered once daily via gavage for 3 days relative to control; type: functional; settings: 72 h, time 3 day
[3] = Inhibition of TGF-beta1 induced mesenchymal transformation in human A549 cells assessed as inhibition rate at 1.25 uM relative to control; type: functional
[4] = Antimigratory activity against human LX2 cells assessed as inhibition rate at 5 uM relative to control; type: functional; settings: LX-2
[5] = Antimigratory activity against Ang II-induced human Cardiac fibroblast cells assessed as inhibition rate at 0.16 uM relative to control; type: functional
MCF7 [6] = test: Antiproliferative activity against human MCF7 cells assessed as cell growth inhibition incubated for 72 hrs by CCK8 assay; type: functional, cell-based; settings: MCF7, 72 h
HCT-116 [7] = test: Antiproliferative activity against human HCT-116 cells assessed as cell growth inhibition incubated for 72 hrs by CCK8 assay; type: functional, cell-based; settings: HCT-116, 72 h
[8] = test system: Human immunodeficiency virus 1; test: Antiviral activity against HIV-1 infected in human C8166 cells; type: functional, organism-based; settings: Human immunodeficiency virus 1, C8166
Rattus norvegicus [9] = test: Anti-inflammatory activity against egg white-induced paw edema in rat model assessed as detumescence rate measured after 6 hrs relative to control; type: functional
Pseudomonas aeruginosa [10] = test: Antibacterial activity against Pseudomonas aeruginosa assessed as bacterial growth inhibition by agar dilution method; type: functional
Klebsiella aerogenes = test: Antibacterial activity against Klebsiella aerogenes assessed as bacterial growth inhibition by agar dilution method; type: functional
PC-3 = test: Cytotoxicity against human PC-3 cells assessed as cell growth inhibition after 48 hrs by SRB assay; type: functional, cell-based; settings: PC-3, 48 h
NCI-H522 = test: Cytotoxicity against human NCI-H522 cells assessed as cell growth inhibition after 48 hrs by SRB assay; type: functional, cell-based; settings: NCI-H522, 48 h
HT-29 = test: Cytotoxicity against human HT-29 cells assessed as cell growth inhibition after 48 hrs by SRB assay; type: functional, cell-based; settings: HT-29, 48 h
DU-145 = test: Cytotoxicity against human DU-145 cells assessed as cell growth inhibition after 48 hrs by SRB assay; type: functional, cell-based; settings: DU-145, 48 h
UACC-62 = test: Cytotoxicity against human UACC-62 cells assessed as cell growth inhibition after 48 hrs by SRB assay; type: functional, cell-based; settings: UACC-62, 48 h
MCF7 [11] = test: Cytotoxicity against human MCF7 cells assessed as cell growth inhibition after 48 hrs by SRB assay; type: functional, cell-based; settings: MCF7, 48 h
OVCAR-8 = test: Cytotoxicity against human OVCAR-8 cells assessed as cell growth inhibition after 48 hrs by SRB assay; type: functional, cell-based; settings: OVCAR-8, 48 h
NCI/ADR-RES = test: Cytotoxicity against human MCF7/ADR cells assessed as cell growth inhibition after 48 hrs by SRB assay; type: functional, cell-based
SW-620 = test: Cytotoxicity against human SW620 cells assessed as cell growth inhibition after 48 hrs by SRB assay; type: functional, cell-based; settings: SW-620, 48 h
HCT-116 [12] = test: Antiproliferative activity against human HCT-116 cells assessed as cell growth inhibition measured after 48 hrs by MTT assay; type: functional, cell-based; settings: HCT-116, 48 h
Rattus norvegicus [13] = organism: Rattus norvegicus; test: Antiplatelet activity against thrombin-induced Sprague-Dawley rat platelet aggregation assessed as inhibition of platelet aggregation preincubated for 2 mins followed by thrombin addition by turbidimetric method; type: functional; settings: Arterial blood
Rattus norvegicus [14] = organism: Rattus norvegicus; test: Antiplatelet activity against arachidonic acid-induced Sprague-Dawley rat platelet aggregation assessed as inhibition of platelet aggregation preincubated for 2 mins followed by arachidonic acid addition by turbidimetric method; type: functional; settings: Arterial blood
Rattus norvegicus [15] = organism: Rattus norvegicus; test: Antiplatelet activity against collagen-induced Sprague-Dawley rat platelet aggregation assessed as inhibition of platelet aggregation preincubated for 2 mins followed by collagen addition by turbidimetric method; type: functional; settings: Arterial blood

Compound: C=C1CCC2[C@](C)(CO)[C@H](O)CC[C@@]2(C)[C@@H]1/C=C/C1=CCOC1=O (stereo partly drawn)
inhibition at 100 µM (Pseudomonas aeruginosa [1]): 92%

Compound: C=C1CC[C@@H]2[C@](C)(COC(=O)c3cccnc3)[C@H](OC(=O)c3cccnc3)CC[C@@]2(C)[C@@H]1/C=C/C1=CC(=C/c2ccc(Cl)cc2)/OC1=O
inhibition in vivo at 900 µmol/kg (Rattus norvegicus [2]): 50.4%
inhibition in vivo at 1350 µmol/kg (Mus musculus): 79.4%

Compound: C=C1CCC2[C@](C)(C=O)c3nc(N)sc3C[C@@]2(C)[C@@H]1/C=C/C1=CCOC1=O (stereo partly drawn)
inhibition at 1.25 µM [3]: > 65%
inhibition at 5 µM [4]: > 20%

Compound: C=C1CCC2[C@](C)(CO)NC(=O)CC[C@@]2(C)[C@@H]1/C=C/C1=CCOC1=O (stereo partly drawn)
inhibition at 1.25 µM [3]: > 60%
inhibition at 5 µM [4]: > 40%
inhibition at 0.16 µM [5]: > 95%

Compound: C=C1CCC2[C@](C)(CO)[C@H](O)CC[C@@]2(C)[C@@H]1CCC1C(=O)N(C)C[C@H]1O (stereo partly drawn)
IC50 [8]: 4.1 µM

Compound: C[C@@]12CCC3[C@](C)(COC(=O)CCC(=O)O)[C@H](OC(=O)CCC(=O)O)CC[C@@]3(C)[C@@H]1CC(C1=CCOC1=O)O2 (stereo partly drawn)
inhibition (INH) (Rattus norvegicus [9]): 93.18%

Compound: C=C1CCC2[C@](C)(CO)[C@H](O)CC[C@@]2(C)[C@@H]1C/C=C(/C(=O)OCC)[C@H](O)CO (stereo partly drawn)
MIC (Pseudomonas aeruginosa [10]): 18.9 µg/mL (≈ 47.7 µM)
MIC (Klebsiella aerogenes): 18.9 µg/mL (≈ 47.7 µM)

Compound: C=C1CCC2[C@](C)(CO)[C@H](O)CC[C@@]2(C)[C@@H]1C/C=C/c1ccc(F)cc1 (stereo partly drawn)
IC50 (PC-3): 14 µM
IC50 (NCI-H522): 3000 nM
IC50 (HT-29): 16 µM
IC50 (DU-145): 7 µM
IC50 (UACC-62): 17 µM
IC50 (MCF7 [11]): 14 µM
IC50 (OVCAR-8): 2000 nM
IC50 (NCI/ADR-RES): 4 µM
IC50 (SW-620): 20 µM

Further lines, results first:

IC50 (MCF7 [6]): 7.8 µM
IC50 (HCT-116 [7]): 2490 nM
Compound: C=C1CC[C@H]2[C@@](C)(C=CC(=O)[C@@]2(C)COC(=O)c2ccccc2)[C@@H]1C/C=C1/C(=O)OC[C@H]1O

IC50 (HCT-116 [12]): 5.8 µM
Compound: C=C1CC[C@@H]2[C@](C)(COC(C)=O)[C@H](OC(C)=O)CC[C@@]2(C)[C@@H]1CC(Nc1ccccc1SC)C1=CCOC1=O (stereo partly drawn)

IC50 (Rattus norvegicus [13]): 360 nM
IC50 (Rattus norvegicus [14]): 480 nM
IC50 (Rattus norvegicus [15]): 500 nM
Compound: C=C1CCC2[C@](C)(COC(=O)CCC(=O)O)[C@H](OC(=O)CCC(=O)O)CC[C@@]2(C)[C@@H]1/C=C/c1cc(=O)oc2cc(OC(C)=O)ccc12 (stereo partly drawn)

IC50 [8]: 9.69 µM
Compound: C=C1CCC2[C@](C)(COC(=O)Cc3cccc4ccccc34)[C@H](OC(=O)c3cccnc3)CC[C@@]2(C)[C@@H]1/C=C/C1=CCOC1=O (stereo partly drawn)
